Patent US7087620B2, “Liquid pharmaceutical formulations containing 3,7-diazabicyclo[3,3,1]nonane compounds and methods of treatment relating to anti-arrhythmic events” (Solvay Pharmaceuticals GmbH, priority 2002, dated 2006)

Tests used:
[1] = tested on: patients with atrial flutter; test: Placebo-controlled ascending dose study of intravenous tedisamil: conversion to normal sinus rhythm, patients with atrial flutter; assay type: in vivo, human; conditions: for Conversion to NSR at any time within 2.5 hrs after the start of infusion (patients converted out of total) / Conversion to NSR at any time within 2.5 hrs after the start of infusion (percentage of patients) / Conversion to NSR at any time within 2.5 hrs and remaining in NSR until 2.5 hrs after the start of infusion (patients out of total) / Conversion to NSR at any time within 2.5 hrs and remaining in NSR until 2.5 hrs after the start of infusion (percentage of patients) / Conversion to NSR at any time within 2.5 hrs and remaining in NSR until 24 hrs after the start of infusion (patients out of total) / Conversion to NSR at any time within 2.5 hrs and remaining in NSR until 24 hrs after the start of infusion (percentage of patients) / Conversion to NSR at any time within 24 hrs after the start of infusion (patients out of total) / Conversion to NSR at any time within 24 hrs after the start of infusion (percentage of patients) / Conversion to NSR at any time within 24 hrs and remaining in NSR until 24 hrs after the start of infusion (patients out of total) / Conversion to NSR at any time within 24 hrs and remaining in NSR until 24 hrs after the start of infusion (percentage of patients): patients with atrial flutter; for Conversion to NSR at any time within 2.5 hrs after start of infusion (converted/total) / Conversion to NSR at any time within 2.5 hrs after start of infusion (%): Atrial Flutter, ITT patient sample, patients with DC cardioversion excluded
Protocol: A Multi-Center, Double-Blind, Randomized, Placebo-Controlled, Sequential Ascending Dose Groups Study to evaluate the Efficacy and Safety of Intravenous Tedisamil in the Rapid Conversion to Normal Sinus Rhythm in Patients with Atrial Fibrillation or Flutter was performed.
• Tedisamil (0.4 mg/kg body weight) • Tedisamil (0.6 mg/kg body weight) • Placebo • Dosages were given as a 30 minute intravenous infusion regimen. 1. Study Design
This multicenter trial was a double-blind, randomized, placebo-controlled, ascending dose groups study comparing the efficacy and safety of intravenous tedisamil treatment versus placebo in symptomatic patients with atrial fibrillation or flutter (>3 hours and <48 hours). The primary efficacy endpoint of this study was the termination of atrial fibrillation or flutter (for at least 60 seconds) within 2.5 hours after start of the infusion.
Following screening and baseline assessments, eligible patients were randomized to tedisamil or placebo with a sequential dose escalation approach. In the first stage, patients received 0.4 mg tedisamil/kg body weight or placebo over a 30 minutes infusion period, with half the dose infused during the first 10 minutes and half the dose infused over the remaining 20 minutes. After interim safety evaluation, in the second stage, patients received 0.6 mg tedisamil/kg body weight or placebo, with the same infusion regimen.
Patients were discharged from the telemetry unit 24 hours post infusion and safety follow up was to be obtained after 28 days. Blinded reviews of 12-lead ECGs (including 60 seconds rhythm strip) and 24 hour Holters to adjudicate the clinical endpoint (conversion to normal sinus rhythm) were performed centrally according to standard guidelines.
Tedisamil dihydrochloride, 0.4 mg/kg body weight, 0.6.mg/kg body weight was administered intravenously. The total infusion time was 30 minutes, with half the dose infused within 10 minutes, and half the dose infused within the remaining 20 minutes.
The percentage of patients converted to normal sinus rhythm (for at least 60 seconds) at any time within 2.5 hours after the initiation of the infusion of study drug.
6.1.2 Secondary Efficacy • The percentage of patients converted to normal sinus rhythm (for at least 60 seconds) at any time within 2.5 hrs and remaining in sinus rhythm until 2.5 hours after initiation of the intravenous infusion of tedisamil versus placebo. • The percentage of patients converted to normal sinus rhythm (for at least 60 seconds) at any time within 24 hours after initiation of the intravenous infusion of tedisamil versus placebo. • The percentage of patients converted to normal sinus rhythm (for at least 60 seconds) at any time within 24 hrs and remaining in sinus rhythm until 24 hours after initiation of the intravenous infusion of tedisamil versus placebo. • The percentage of patients converted to normal sinus rhythm (for at least 60 seconds) at any time within 2.5 hrs and remaining in sinus rhythm until 24 hours after initiation of the intravenous infusion of tedisamil versus placebo. • The time to conversion after the start of the infusion of tedisamil versus placebo. • The dose- and concentration-response relationships of tedisamil versus placebo.
The intent-to-treat patient sample was analyzed for efficacy. All tests were two-sided and a p-value <0.05 was considered significant. Differences in percentages of conversion were compared among the treatment groups using the Pearson chi-square statistic. Safety analysis was conducted on the safety patient sample. Numbers and percentages of patients with adverse events were calculated for each treatment group, using MedDRA preferred terms and body systems. Descriptive statistics were summarized by treatment group for changes from baseline in QT, heart rate and blood pressure. […]

[2] = tested on: subjects with recent onset atrial fibrillation or flutter; test: Phase III study of intravenous tedisamil sesquifumarate in subjects with recent onset atrial fibrillation or flutter; assay type: in vivo, human; conditions: second study (Phase III)
Protocol: This second clinical study was a Multi-Center, Double-Blind, Randomized, Placebo-Controlled, Parallel Design Study to evaluate the Efficacy and Safety of Intravenous Tedisamil Sesquifumarate in the Rapid Conversion to Normal Sinus Rhythm in Subjects with Recent Onset Atrial Fibrillation or Flutter.
The active ingredient used was tedisamil sesqifumarate. […] Study duration: Screening: up to 48 hours; treatment (in-patient): single 30-minute infusion; safety follow up: 24 hours (in-patient) with continuous telemetry and 28 day safety follow up. […]

[3] = 0.4 mg/kg iv two-step 30 minute infusion
[4] = 0.6 mg/kg iv two-step 30 minute infusion

C1CCC2(C1)C1CN(CC3CC3)CC2CN(CC2CC2)C1 [Tedisamil, N,N′-dicyclopropylmethyl-9,9-tetramethylene-3,7-diazabicyclo[3,3,1]nonane]
Conversion to NSR at any time within 2.5 hrs after the start of infusion (patients converted out of total) [1, 3]: 1 out of 9 | Conversion to NSR at any time within 2.5 hrs after the start of infusion (percentage of patients) [1, 3]: (11%) | Conversion to NSR at any time within 2.5 hrs and remaining in NSR until 2.5 hrs after the start of infusion (patients out of total) [1, 3]: 1 out of 9 | Conversion to NSR at any time within 2.5 hrs and remaining in NSR until 2.5 hrs after the start of infusion (percentage of patients) [1, 3]: (11%) | Conversion to NSR at any time within 2.5 hrs and remaining in NSR until 24 hrs after the start of infusion (patients out of total) [1, 3]: 1 out of 7 | Conversion to NSR at any time within 2.5 hrs and remaining in NSR until 24 hrs after the start of infusion (percentage of patients) [1, 3]: (14%) | Conversion to NSR at any time within 24 hrs after the start of infusion (patients out of total) [1, 3]: 2 out of 7 | Conversion to NSR at any time within 24 hrs after the start of infusion (percentage of patients) [1, 3]: (29%) | Conversion to NSR at any time within 24 hrs and remaining in NSR until 24 hrs after the start of infusion (patients out of total) [1, 3]: 2 out of 7 | Conversion to NSR at any time within 24 hrs and remaining in NSR until 24 hrs after the start of infusion (percentage of patients) [1, 3]: (29%) | Conversion to NSR at any time within 2.5 hrs after the start of infusion (percentage of patients) ([1]; 0.4 mg/kg iv two-step 30 minute infusion, listed as tedisamil): 11% | Conversion to NSR at any time within 2.5 hrs after the start of infusion (patients converted out of total) [1, 4]: 3 out of 11 | Conversion to NSR at any time within 2.5 hrs after the start of infusion (percentage of patients) [1, 4]: (27%) | Conversion to NSR at any time within 2.5 hrs and remaining in NSR until 2.5 hrs after the start of infusion (patients out of total) [1, 4]: 3 out of 11 | Conversion to NSR at any time within 2.5 hrs and remaining in NSR until 2.5 hrs after the start of infusion (percentage of patients) [1, 4]: (27%) | Conversion to NSR at any time within 2.5 hrs and remaining in NSR until 24 hrs after the start of infusion (patients out of total) [1, 4]: 3 out of 7 | Conversion to NSR at any time within 2.5 hrs and remaining in NSR until 24 hrs after the start of infusion (percentage of patients) [1, 4]: (43%) | Conversion to NSR at any time within 24 hrs after the start of infusion (patients out of total) [1, 4]: 3 out of 7 | Conversion to NSR at any time within 24 hrs after the start of infusion (percentage of patients) [1, 4]: (43%) | Conversion to NSR at any time within 24 hrs and remaining in NSR until 24 hrs after the start of infusion (patients out of total) [1, 4]: 3 out of 7 | Conversion to NSR at any time within 24 hrs and remaining in NSR until 24 hrs after the start of infusion (percentage of patients) [1, 4]: (43%) | Conversion to NSR at any time within 2.5 hrs after the start of infusion (percentage of patients) ([1]; 0.6 mg/kg iv two-step 30 minute infusion, listed as tedisamil): 27% | Conversion to NSR at any time within 2.5 hrs after start of infusion (converted/total) ([1]; Female, 0.4 mg/kg): 0/2 | Conversion to NSR at any time within 2.5 hrs after start of infusion (%) ([1]; Female, 0.6 mg/kg): 33.3% | Conversion to NSR at any time within 2.5 hrs after start of infusion (converted/total) ([1]; Female, 0.6 mg/kg): 2/6 | Conversion to NSR at any time within 2.5 hrs after start of infusion (%) ([1]; Male, 0.4 mg/kg): 14.3% | Conversion to NSR at any time within 2.5 hrs after start of infusion (converted/total) ([1]; Male, 0.4 mg/kg): 1/7 | Conversion to NSR at any time within 2.5 hrs after start of infusion (%) ([1]; Male, 0.6 mg/kg): 20.0% | Conversion to NSR at any time within 2.5 hrs after start of infusion (converted/total) ([1]; Male, 0.6 mg/kg): 1/5 | Gender difference in conversion rate [2]: male patients show a higher conversion rate compared to women
